From patent US20240228506A1, “RIPK1 INHIBITORS AND METHODS OF USE” (Merck Sharp & Dohme LLC, priority 2021, published 2024)

target: T1, GST-RIPK1 (recombinant GST-RIPK1 kinase domain (residues 1-327)) (Homo sapiens, UniProt Q13546); experiment: RIPK1-ADP-Glo enzymatic assay; assay type: biochemical; details: 25 nM GST-RIPK1, 300 μM ATP, 3 μM dephosphorylated-MBP; 30 minutes pre-incubation, 150 minutes reaction; ten-point titration
T1 construct: recombinant GST-RIPK1 kinase domain (residues 1-327) enzyme; made in house; host or cells: baculovirus-transfected Sf21 insect cells
T1 sequence (Q13546 1-327): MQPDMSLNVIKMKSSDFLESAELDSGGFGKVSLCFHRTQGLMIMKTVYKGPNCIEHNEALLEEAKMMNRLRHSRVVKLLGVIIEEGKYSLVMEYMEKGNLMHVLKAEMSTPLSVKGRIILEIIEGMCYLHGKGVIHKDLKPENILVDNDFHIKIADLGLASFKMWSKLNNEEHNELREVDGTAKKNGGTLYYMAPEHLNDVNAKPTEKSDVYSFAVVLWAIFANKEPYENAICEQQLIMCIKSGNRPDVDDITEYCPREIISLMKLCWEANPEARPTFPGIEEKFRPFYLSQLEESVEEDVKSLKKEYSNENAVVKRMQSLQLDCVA
Procedure: The enzymatic activity of RIPK1 is measured using an assay derived from ADP-Glo kit (Promega™), which provides a luminescent-based ADP detection system. Specifically, the ADP generated by RIPK1 kinase is proportionally detected as luminescent signals in a homogenous fashion. In this context, the assessment of the inhibitory effect of small molecules (EC50) is measured by the effectiveness of the compounds to inhibit the ATP to ADP conversion by RIPK1. In this assay, the potency (EC50) of each compound was determined from a ten-point (1:3 serial dilution; top compound concentration of 100000 nM) titration curve using the following outlined procedure. To each well of a white ProxiPlus 384 well-plate, […] of compound (1% DMSO in final assay volume of 3 μL) was dispensed, followed by the addition of 2 μL of 1× assay buffer (25 mM Hepes 7.3, 20 mM MgCl2, 50 mM NaCl, 1 mM DTT, 0.005% Tween20, and 0.02% BSA) containing 37.5 nM of GST-RIPK1 (recombinant GST-RIPK1 kinase domain (residues 1-327) enzyme produced from baculovirus-transfected Sf21 cells: MW=62 kDa). Plates were placed in an ambient temperature humidified chamber for a 30 minutes pre-incubation with compound. Subsequently, each reaction was initiated by the addition of 1 μL 1×assay buffer containing 900 μM ATP and […]. The final reaction in each well of 3 μL consists of 25 nM of GST-RIPK1, 300 μM ATP, and 3 μM dephosphorylated-MBP. Kinase reactions were allowed to proceed for 150 minutes prior to adding ADP-Glo reagents per Promega's outlined kit protocol. Dose-response curves were generated by plotting percent effect (% product conversion; Y-axis) vs. Log10 compound concentrations (X-axis). EC50 values were calculated using a non-linear regression, four-parameters sigmoidal dose-response model.

Row | IC50 [nM] | SMILES
1 | 72 | CC(C)(C)C(=O)N1C[C@@H]2C[C@H]1c1cncc(C#Cc3ccccc3)c1O2 [Compound 2-20, 2,2-Dimethyl-1-((2S,5S)-9-(phenylethynyl)-2,3-dihydro-2,5-methanopyrido[3,4-f][1,4]oxazepin-4(5H)-yl)propan-1-one]
2 | 729 | CC1(C(=O)N2C[C@@H]3C[C@H]2c2cncc(C#N)c2O3)CCCO1 (mixture of isomers) [Compound 1-64, (2S,5S)-4-(2-(S and R)-methyltetrahydrofuran-2-carbonyl)-2,3,4,5-tetrahydro-2,5-methanopyrido[3,4-f][1,4]oxazepine-9-carbonitrile]
3 | 13 | CCC(C)(C)C(=O)N1C[C@@H]2C[C@H]1c1cncc(C#N)c1O2 [Compound 1-4, (2S,5S)-4-(2,2-dimethylbutanoyl)-2,3,4,5-tetrahydro-2,5-methanopyrido[3,4-f][1,4]oxazepine-9-carbonitrile]
4 | 252 | CCC(C)(C#N)C(=O)N1C[C@@H]2C[C@H]1c1cncc(C#N)c1O2 (single isomer, unassigned) [Compound 1-112, (2S,5S)-4-(2-(R or S)-cyano-2-methylbutanoyl)-2,3,4,5-tetrahydro-2,5-methanopyrido[3,4-f][1,4]oxazepine-9-carbonitrile]
5 | 41 | CCC(C)(C)C(=O)N1C[C@@H]2C[C@H]1c1cncc(Cl)c1O2 [Compound 2-9, 1-((2S,5S)-9-chloro-2,3-dihydro-2,5-methanopyrido[3,4-f][1,4]oxazepin-4(5H)-yl)-2,2-dimethylbutan-1-one]
6 | 163 | CC(C)(OC(F)(F)F)C(=O)N1C[C@@H]2C[C@H]1c1cncc(C#N)c1O2 [Compound 1-103, (2S,5S)-4-(2-methyl-2-(trifluoromethoxy)propanoyl)-2,3,4,5-tetrahydro-2,5-methanopyrido[3,4-f][1,4]oxazepine-9-carbonitrile]
7 | 70 | N#Cc1cncc2c1O[C@H]1C[C@@H]2N(C(=O)C23CCC(CC2(F)F)C3)C1 (single isomer, unassigned) [Compound 1-49, (2S,5S)-4-[(S or R)-2,2-difluorobicyclo[2.2.1]heptane-1-carbonyl]-2,3,4,5-tetrahydro-2,5-methanopyrido[3,4-f][1,4]oxazepine-9-carbonitrile]
8 | 150 | CC(C)(C(=O)N1C[C@@H]2C[C@H]1c1cncc(C#CCC3CCOCC3)c1O2)C(F)F [Compound 2-107, 3,3-difluoro-2,2-dimethyl-1-((2S,5S)-9-(3-(tetrahydro-2H-pyran-4-yl)prop-1-yn-1-yl)-2,3-dihydro-2,5-methanopyrido[3,4-f][1,4]oxazepin-4(5H)-yl)propan-1-one]
9 | 64 | CN(C)C1(C(=O)N2C[C@@H]3C[C@H]2c2cncc(C#N)c2O3)CCC1 [Compound 1-91, (2S,5S)-4-(1-(dimethylamino)cyclobutane-1-carbonyl)-2,3,4,5-tetrahydro-2,5-methanopyrido[3,4-f][1,4]oxazepine-9-carbonitrile]
10 | 288 | COC(C)(C)C(=O)N1C[C@@H]2C[C@H]1c1cncc(C#N)c1O2 [Compound 1-24, (2S,5S)-4-(2-methoxy-2-methylpropanoyl)-2,3,4,5-tetrahydro-2,5-methanopyrido[3,4-f][1,4]oxazepine-9-carbonitrile]
11 | 42 | CC(C)(CC#N)C(=O)N1C[C@@H]2C[C@H]1c1cncc(C#N)c1S2 [Compound 4-4, (2S,5S)-4-(3-cyano-2,2-dimethylpropanoyl)-2,3,4,5-tetrahydro-2,5-methanopyrido[3,4-f][1,4]thiazepine-9-carbonitrile]
12 | 74 | CC(C)(C(=O)N1C[C@@H]2C[C@H]1c1cncc(F)c1O2)C1CC1 [Compound 2-16, 2-cyclopropyl-1-((2S,5S)-9-fluoro-2,3-dihydro-2,5-methanopyrido[3,4-f][1,4]oxazepin-4(5H)-yl)-2-methylpropan-1-one]
13 | 43 | CCC(C)(C#N)C(=O)N1C[C@@H]2C[C@H]1c1cncc(C#N)c1S2 (single isomer, unassigned) [Compound 4-10, (2S,5S)-4-(2-(R or S)-cyano-2-methylbutanoyl)-2,3,4,5-tetrahydro-2,5-methanopyrido[3,4-f][1,4]thiazepine-9-carbonitrile]
14 | 88 | N#Cc1cncc2c1O[C@H]1C[C@@H]2N(C(=O)C2(C(F)F)CCC2)C1 [Compound 1-23, (2S,5S)-4-[1-(difluoromethyl)cyclobutane-1-carbonyl]-2,3,4,5-tetrahydro-2,5-methanopyrido[3,4-f][1,4]oxazepine-9-carbonitrile]
15 | 78 | CC1(C(=O)N2C[C@@H]3C[C@H]2c2cncc(C#N)c2O3)CC1C(F)(F)F (stereo partly drawn) [Compound 1-46, (2S,5S)-4-[1-methyl-2-(trifluoromethyl)cyclopropane-1-carbonyl]-2,3,4,5-tetrahydro-2,5-methanopyrido[3,4-f][1,4]oxazepine-9-carbonitrile]
16 | 50 | CC(C)(C)C(=O)N1C[C@@H]2C[C@H]1c1cncc(C#N)c1O2 [Compound 1-3, (2S,5S)-4-(2,2-dimethylpropanoyl)-2,3,4,5-tetrahydro-2,5-methanopyrido[3,4-f][1,4]oxazepine-9-carbonitrile]

Continued, compound first:

Row | SMILES | IC50 [nM]
17 | CC1(C(=O)N2C[C@@H]3C[C@H]2c2cncc(F)c2O3)CCCC1 [Compound 2-23, ((2S,5S)-9-fluoro-2,3-dihydro-2,5-methanopyrido[3,4-f][1,4]oxazepin-4(5H)-yl)(1-methylcyclopentyl) methanone] | 74
18 | N#Cc1cncc2c1C[C@H]1C[C@@H]2N(C(=O)C23CCC(C(F)(F)F)(CC2)C3)C1 (single isomer, unassigned) [Compound 5-6] | 123
19 | O=C(N1C[C@@H]2C[C@H]1c1cncc(C#CC3CC3)c1O2)C12CCC(F)(CC1)C2 [Compound 2-115, ((2S,5S)-9-(Cyclopropylethynyl)-2,3-dihydro-2,5-methanopyrido[3,4-f][1,4]oxazepin-4(5H)-yl)(4-fluorobicyclo[2.2.1]heptan-1-yl)methanone] | 32
20 | CC1(C(=O)N2C[C@@H]3C[C@H]2c2cncc(Cl)c2O3)CCCC1 [Compound 2-25, ((2S,5S)-9-chloro-2,3-dihydro-2,5-methanopyrido[3,4-f][1,4]oxazepin-4(5H)-yl)(1-methylcyclopentyl) methanone] | 79
21 | N#Cc1cncc2c1O[C@H]1C[C@@H]2N(C(=O)[C@H]2C[C@@H](Oc3ccc(F)cc3F)C2)C1 [Compound 1-101] | 132
22 | CCC#Cc1cncc2c1O[C@H]1C[C@@H]2N(C(=O)C23CCC(F)(CC2)C3)C1 [Compound 2-117] | 43
23 | O=C(N1C[C@@H]2C[C@H]1c1cncc(C#CCC3(F)COC3)c1O2)C12CCC(F)(CC1)C2 [Compound 2-120, (4-fluorobicyclo[2.2.1]heptan-1-yl)((2S,5S)-9-(3-(3-fluorooxetan-3-yl)prop-1-yn-1-yl)-2,3-dihydro-2,5-methanopyrido[3,4-f][1,4]oxazepin-4(5H)-yl)methanone] | 95
24 | O=C(N1C[C@@H]2C[C@H]1c1cncc(C#Cc3ccncn3)c1O2)C12CCC(C(F)(F)F)(CC1)C2 [Compound 2-67, ((2S,5S)-9-(pyrimidin-4-ylethynyl)-2,3-dihydro-2,5-methanopyrido[3,4-f][1,4]oxazepin-4(5H)-yl)(4-(trifluoromethyl)bicyclo [2.2.1]heptan-1-yl)methanone] | 32
25 | O=C(N1C[C@@H]2C[C@H]1c1cncc(C#Cc3cscn3)c1O2)C12CCC(C(F)(F)F)(CC1)C2 [Compound 2-54, ((2S,5S)-9-(thiazol-4-ylethynyl)-2,3-dihydro-2,5-methanopyrido[3,4-f][1,4]oxazepin-4(5H)-yl)(4-(trifluoromethyl)bicyclo [2.2.1]heptan-1-yl)methanone] | 18
26 | CN1CC2CC1(C(=O)N1C[C@@H]3C[C@H]1c1cncc(C#N)c1O3)C2 [Compound 1-109, (2S,5S)-4-(2-methyl-2-azabicyclo[2.1.1]hexane-1-carbonyl)-2,3,4,5-tetrahydro-2,5-methanopyrido[3,4-f][1,4]oxazepine-9-carbonitrile] | 241
27 | O=C(N1C[C@@H]2C[C@H]1c1cncc(C#Cc3cncnc3)c1O2)C12CCC(C(F)(F)F)(CC1)C2 [Compound 2-50, ((2S,5S)-9-(Pyrimidin-5-ylethynyl)-2,3-dihydro-2,5-methanopyrido[3,4-f][1,4]oxazepin-4(5H)-yl)(4-(trifluoromethyl)bicyclo[2.2.1]heptan-1-yl)methanone] | 15
